Patent US10016382B2, “Method for decreasing skeletal muscle damage and/or oxidative stress in mammals” (LONZA INC., priority 2014, dated 2018)
Several values for one entry are separate records, joined by “and”; a condition that tells them apart may be missing. Identical values can stand only once.

Experiments:
Format in all cases: in vivo, dog
[1] = tested on: skeletal protein; assay: Fractional synthesis rate (FSR) of skeletal protein, 15N Phe infusion, Example 2 part two
Experimental: At the end of the 60 day training program, 24 of the dogs (12 resting and 12 running) were infused with a bolus dose of 15N Phe. […] Forty-five minutes after infusion, a 5 mm Bergstrom muscle biopsy needle was used to take a biopsy of the biceps femoris muscle. The muscle samples were quickly frozen in liquid nitrogen and placed in a -80° C. freezer for later analysis]. Twenty-four hours after the resting dogs were infused with 15N Phe, the remaining 12 dogs (6 non-carnitine; 3 male and 3 female and 6 L-carnitine; 3 male and 3 female) were run for a 15 mile endurance run. Following a 30 minute period of measured physiological recovery (heart rate and body temperature), test dogs that completed the 15 mile run were infused with a 2% 15N Phe solution as described above; muscle biopsies were taken 45 minutes after infusion. To process the samples, the acid-soluble fraction containing free amino acids was removed by addition of 2% (w/v) perchloric acid. After homogenization, samples were centrifuged at 3,000×g, and the supernatant, containing free amino acids, was removed. The protein precipitate was washed three times with 2% perchloric acid before being hydrolyzed in 6N HCL. The supernatant and precipitate, respectively, were then run through an ion-exchange column packed with Dowex 50WX8-200. Phenylalanine and 3-methylhistidine (3-MH) were eluted with 2 mL of 4N NH4OH and 1 mL of nanopure H2O into a new vial and then dried under vacuum. The tert-butyldimethylsilyl (tBDMS) derivative was formed by adding 800 μL of C2CH3CN-MTBSTFA (1:1) and incubating at 110° C. for 60 minutes. Analysis of the protein precipitate of muscle samples and free amino acids were carried out on an Agilent 7890A GC system attached to an Agilent 6975C mass spectrometer. Helium was used as the carrier gas at 1 mL/min. A 1 μL volume was injected into the GC/MS in splitless mode. Oven temperature began at 150° C. and increased by 50° C./min until reaching 200° C., after which the temperature was increased by 20° C./min until reaching 270° C. The temperature was held at 270° C. for 5.5 minutes. The mass spectrometer was operated under EI and SIM modes. The 394 and 395 m/z fragments, which represented the M and M+1 fragments of phenylalanine, were monitored.

[2] = tested on: Thiobarbituric acid reactive substances (TBARS); assay: Serum TBARS (oxidative stress), Example 1; settings: for TBARS, serum, Mean / Change in TBARS, post-run minus pre-run: Ex.1, 250 mg/d; for Change in TBARS, post-run minus pre-run: following 15 mile long run at 13 wk, mean ± SEM
Experimental: Blood Analysis: Serum samples were taken at three different times from each dog during the 90 day period. The blood samples were collected as follows: 1.) just prior to scanning each dog for body composition at the beginning of the study, 2.) prior to the long run on the 13th week, and 3.) following the long run on the 13th week. The serum samples were analyzed for Phosphocreatine Kinase and Canine Myoglobin to determine the amount of muscle protein leakage that occurred following the long run and TBARS and Total Antioxidant Capacity (TAC) were determined to evaluate the antioxidant status of each of the test dogs during the exercise program. The final blood sample was taken 24 hr after the long run to obtain maximum protein leakage based on previous similar types of exercise research with human athletes. Biomarkers and Assay Methods: Blood was drawn from each dog using a serum separator tube at three different times during the 90 day period: 1.) just prior to scanning each dog for body composition at the beginning of the study, 2.) prior to the long run on the 13th week, and 3.) following the long run on the 13th week. The final blood sample was taken 24 hr after the long run to obtain maximum protein leakage based on previous similar types of exercise research with human athletes. Each time after the blood was drawn it was allowed to clot before being centrifuged for 15 min at 2000 g at 4° C. Serum was aliquoted into 1.5 mL microcentrifuge tubes and stored at −80° C. until assays were ran following the end of the study. Creatine kinase (CK) and canine myoglobin were measured to determine the amount of muscle protein leakage that occurred following the long run. Thiobarbituric acid reactive substances (TBARS) and total antioxidant capacity (TAC) were measured to evaluate the antioxidant status of each of the test dogs during the exercise program. Serum samples were analyzed for total antioxidant capacity (TAC) and thiobarbituric acid reactive substances (TBARS) using commercially available colorimetric kits supplied by Cayman Chemical Company (Ann Arbor, Mich.) per manufacturer instructions. Serum canine myoglobin levels were determined using a commercially available ELISA supplied by Innovate Research (Novi, Mich.) per manufacturer instructions. Creatine kinase activity was determined colorimetrically using a commercially available kit supplied by BioVision (San Francisco, Calif.).

[3] = tested on: Labrador Retrievers; assay: Activity (APM, APM/kg) by Actical monitor and GPS collar, Example 2 part one; settings: for APM / APM/kg: crossover L-carnitine dogs
Text: Both the L-carnitine and control performance dogs were put through a weekly running program consisting of two evenly distributed endurance runs. Groups ranging between 6 and 10 dogs were run together, including both treatments in each group. The endurance runs increased incrementally by 0.5 miles per week (5 miles/session increasing to 10 miles per session over an 11 week period). The dogs were allowed a 1 day rest between runs and a 3 day rest before a scheduled exercise distance increase. The dogs were put through maintenance runs of 5 miles twice in the 12th week and then 2 miles twice in the 13th week. All dogs had at least 4 days of rest prior to the final 15 miles run in the 14th week. The first exercise session during the week consisted only of endurance style running, while the second session included short 100 m sprints at each mile interval in order to incorporate measurable anaerobic exercise into the weekly regimen. The endurance runs were slightly slower to enhance fat oxidation and represent an exercise intensity equivalent to 50%-65% VO2 max. Each performance dog wore the Actical activity monitor and GPS tracking collar during the last 15 mile endurance run. The final run was conducted in a manner analogous to that of Example 1. All activity was accurately and precisely calculated using the GPS tracking monitors. Immediately following the 15 mile endurance run, each dog was placed in a kennel and evaluated for recovery time in body temperature (every 15 minutes for 2 hours) and heart rate (every 2 minutes for up to 20 minutes until basal beats per minute (BPM) was reached). Body temperature and heart rate were measured as described in Example 1.

[4] = Ex.2 part one, 250 mg/d, 19 L-carnitine dogs that were control dogs in Example 1
[5] = data collected in Example 1 (then control dogs)

C[N+](C)(C)C[C@H](O)CC(=O)[O-] [L-carnitine]
% FSR of skeletal protein vs control ([1]; Ex.2 part two, 250 mg/d, male or female dogs): did not increase
FSR ([1]; Female, no run): 5.04%
FSR ([1]; Female, run): 2.54%
FSR ([1]; Male, no run): 3.61%
FSR ([1]; Male, run): 4.63%
TBARS Least Sq Mean ([2]; Baseline): 12.53 μM MDA
TBARS Least Sq Mean ([2]; Baseline, F): 14.1 μM MDA
TBARS Least Sq Mean ([2]; Baseline, M): 10.96 μM MDA
TBARS, serum, Mean ([2]; Baseline, both sexes): 12.37 uM MDA
TBARS, serum, Mean ([2]; Baseline, females): 14.10 uM MDA
TBARS, serum, Mean ([2]; Baseline, males): 10.96 uM MDA
TBARS, serum, Mean ([2]; Post-run, both sexes): 12.59 uM MDA
TBARS, serum, Mean ([2]; Post-run, females): 14.47 uM MDA
TBARS, serum, Mean ([2]; Post-run, males): 11.06 uM MDA
TBARS, serum, Mean ([2]; Pre-run, both sexes): 12.18 uM MDA
TBARS, serum, Mean ([2]; Pre-run, females): 15.13 uM MDA
TBARS, serum, Mean ([2]; Pre-run, males): 9.77 uM MDA
Change in TBARS, post-run minus pre-run ([2]; both sexes): 0.41 μM MDA and 0.41 ± 0.71 n = 20 μM MDA
Change in TBARS, post-run minus pre-run ([2]; females): −0.7 ± 1.1 n = 9 μM MDA
Change in TBARS, post-run minus pre-run ([2]; males): 1.3 ± 0.9 n = 11 μM MDA
TBARS Least Sq Mean ([2]; Post-run): 12.76 μM MDA
TBARS Least Sq Mean ([2]; Post-run, F): 14.47 μM MDA
TBARS Least Sq Mean ([2]; Post-run, M): 11.06 μM MDA
TBARS Least Sq Mean ([2]; Pre-run): 12.45 μM MDA
TBARS Least Sq Mean ([2]; Pre-run, F): 15.13 μM MDA
TBARS Least Sq Mean ([2]; Pre-run, M): 9.77 μM MDA
TBARS Least Sq Mean ([2]; Treatment * Sex, F): 14.1 μM MDA
TBARS Least Sq Mean ([2]; Treatment * Sex, M): 10.96 μM MDA
TBARS Least Sq Mean ([2]; Treatment level, all dogs): 12.53 μM MDA
TBARS, mixed model Estimate, term Time[Post-run-Pre-run] * Treatment[L-carnitine] ([2]; serum, model term): −0.943
TBARS, mixed model Estimate, term Time[Post-run-Pre-run] * Treatment[L-carnitine] * Sex[F] ([2]; serum, model term): −0.763
TBARS, mixed model Estimate, term Time[Pre-run-Baseline] * Treatment[L-carnitine] ([2]; serum, model term): 0.8244
TBARS, mixed model Estimate, term Time[Pre-run-Baseline] * Treatment[L-carnitine] * Sex[F] ([2]; serum, model term): 0.2021
TBARS, mixed model Estimate, term Treatment[L-carnitine] ([2]; serum, model term): −0.5222
TBARS, mixed model Estimate, term Treatment[L-carnitine] * Sex[F] ([2]; serum, model term): 0.4031
Crossover activity gain, APM [3, 4]: 27,697
Crossover activity gain, APM/kg [3, 4]: 975
APM ([3]; Example 2 part one, 250 mg/d): 63,272
APM/kg ([3]; Example 2 part one, 250 mg/d): 2274
APM [3, 5]: 37,621
APM/kg [3, 5]: 1363
